In US12661364B2, “Remedy for hair growth enhancing” (GURUS BIOPHARM INC., priority 2019, dated 2026):
One block for each molecule: values may come before it.

Experiments:
[1] = Stability of the cosmetic composition during accelerated storage at room temperature (HPLC content of the combination's components); format: physicochemical; conditions: for Stability / content in the cosmetic composition during accelerated storage (in words): room temperature, 20 degrees above the recommended +4 to +8° C.; for Prostaglandin F2 content, % (as % to the initial one): +25-27° C., measurement error 5%
Protocol: The cosmetic composition for stimulation of hair growth (example of composition 1 according to the invention, see above) was held at +25-27° C. for 2 months. Samples were taken every week and analyzed for the content of the components of the combination by HPLC. To prepare a sample for analysis, 1 g of gel was taken from the cosmetic composition into a round-bottom glass centrifuge tube and 2 g of distilled ethyl acetate were added. The mixture was shaken on a Multi-Vortex V32 until the liquids were completely mixed for 3 min. The resulting suspension was centrifuged for 5 min at 6000 rpm for complete separation of the layers. The upper layer (ethyl acetate layer) was carefully removed with a glass pipette and transferred to a conical-bottom flask (V25 mL). Another 2 g of distilled ethyl acetate were added to the solution remaining in the test tube, and the extraction procedure was repeated once again. The upper layer (ethyl acetate layer) was carefully removed with a glass pipette and added to the previously collected solution. The organic layer was evaporated on a rotary evaporator and dried in an oil pump vacuum. The residue was dissolved in ethanol to obtain a solution with an ethanol concentration of 26 mg/100 μL. The extract was analyzed by microcolumn reversed-phase HPLC in an acetonitrile-water gradient system (linear gradient, 5→100% acetonitrile). The components of the combination of the invention were identified by comparison with reference standards. The quantity of each component was estimated by the signal area in the chromatogram.

scalp hair growth = conditions: 0.1% latanoprost applied to the scalp, after 24 weeks; cited from earlier work

Structure (SMILES): CCCCC[C@H](O)/C=C/[C@H]1[C@H](O)CC(=O)[C@@H]1C/C=C\CCCC(=O)OC(CO[N+](=O)[O-])CO[N+](=O)[O-] [(Z)-1,3-bis(nitroxy)propanyl-2-7-((1R,2R,3R)-3-hydroxy-2-((S,E)-3-hydroxyoctene-1-yl-1)-5-oxocyclopentenyl)-5-heptenoate]
Stability / content in the cosmetic composition during accelerated storage (in words) [1]: decreases over time

Structure (SMILES): CC(C)OC(=O)CCC/C=C\C[C@@H]1[C@@H](CC[C@@H](O)CCc2ccccc2)[C@H](O)C[C@@H]1O [latanoprost]
Hair density (terminal and vellus hair) (scalp hair growth): significant increase in hair density

Prostaglandin F2 content, % (as % to the initial one) ([1]; hold time 0 weeks, cosmetic composition for stimulation of hair growth): 100%
Prostaglandin F2 content, % (as % to the initial one) ([1]; hold time 1 week): 100%
Prostaglandin F2 content, % (as % to the initial one) ([1]; hold time 2 weeks): 100%
Prostaglandin F2 content, % (as % to the initial one) ([1]; hold time 3 weeks): 99%
Prostaglandin F2 content, % (as % to the initial one) ([1]; hold time 4 weeks): 99%
Prostaglandin F2 content, % (as % to the initial one) ([1]; hold time 5 weeks): 98%
Prostaglandin F2 content, % (as % to the initial one) ([1]; hold time 6 weeks): 98%
Stability / content in the cosmetic composition during accelerated storage (in words) [1]: decreases very slowly
Structure (SMILES): CCCCC[C@H](O)/C=C/[C@@H]1[C@@H](C/C=C\CCCC(=O)N[C@H](CO)C(=O)OC(C)C)[C@@H](O)C[C@H]1O [modified prostaglandin F2]

Structure (SMILES): CCCCC[C@H](O)/C=C/[C@H]1[C@H](O)CC(=O)[C@@H]1CCCCCCC(=O)OC(CO[N+](=O)[O-])CO[N+](=O)[O-] [E1, (Z)-1,3-bis(nitroxy)propan-2-yl-7-((1R,2R,3R)-3-hydroxy-2-((S,E)-3-hydroxyoct-1-en-1-yl)-5-xocyclopentyl)heptanoate]
Stability / content in the cosmetic composition during accelerated storage (in words) [1]: decreases over time
